From the supplement of paper PMC11616607

Tests used:
Assay in all cases: drug sensitivity score (DSS) from 5-point dose-response viability curve (DSS (area-under-curve based score)); higher = more sensitive (stronger growth inhibition or killing); extreme values may be limits of the assay
Details in all cases: exposure time: 72 h; concentration range: 5 concentrations over 10,000-fold range
CAOV3 = system: CAOV3
Method in brief: (§1)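 Drug sensitivity scores were calculated in Breeze software for each cell line and drug pair; higher scores indicate more sensitivity. A score of zero indicates no response. The underlying assay used 384-well plates: drugs were placed by an Echo 550 acoustic dispenser at five concentrations spanning a 10,000-fold range, 1,500 ovarian cancer or normal ovarian cells were added per well, and cells were kept 3 days at 37°C, 5% CO2. Viability was then measured with CellTiter-Glo luminescence on a PHERAstar FS.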

COV362 = system: COV362
Method in brief: as §1

OVCAR5 = system: OVCAR5
Method in brief: as §1

OVCAR4 = system: OVCAR4
Method in brief: as §1

HOSE2C = system: HOSE2C
Method in brief: as §1

OVCAR8 = system: OVCAR8
Method in brief: as §1

Kuramochi = system: Kuramochi
Method in brief: as §1

Ovsaho = system: Ovsaho
Method in brief: as §1

HOSE1C = system: HOSE1C
Method in brief: as §1

COV318 = system: COV318
Method in brief: as §1

OV90 = system: OV90
Method in brief: as §1

JHOS2 = system: JHOS2
Method in brief: as §1

| Structure (SMILES) | drug sensitivity score (CAOV3) | drug sensitivity score (COV362) | drug sensitivity score (OVCAR5) | drug sensitivity score (OVCAR4) | drug sensitivity score (HOSE2C) | drug sensitivity score (OVCAR8) | drug sensitivity score (Kuramochi) | drug sensitivity score (Ovsaho) | drug sensitivity score (HOSE1C) | drug sensitivity score (COV318) | drug sensitivity score (OV90) | drug sensitivity score (JHOS2) |
| --- | --- | --- | --- | --- | --- | --- | --- | --- | --- | --- | --- | --- |
| CN(Cc1cnc2nc(N)nc(N)c2n1)c1ccc(C(=O)N[C@@H](CCC(=O)O)C(=O)O)cc1 [Methotrexate] | 16.7 | 14.5 | 13.8 | 14.8 | 13.2 | 12.3 | 13 | 2.9 | 13.7 | 0 | 10.6 | 6.5 |
| C[C@H]1C[C@@H]2[C@H]([C@@H](O)C[C@@]3(C)[C@H]2CC[C@]3(O)C(=O)CO)[C@@]2(C)C=CC(=O)C=C12 [Methylprednisolone] | 0 | 1.2 | 0 | 0 | 0 | 0.2 | 0 | 1 | 0 | 1.3 | 0 | 0.7 |
| CO[C@@H]1[C@H](N(C)C(=O)c2ccccc2)C[C@H]2O[C@]1(C)n1c3ccccc3c3c4c(c5c6ccccc6n2c5c31)C(=O)NC4 [Midostaurin] | 17.7 | 5 | 5.3 | 8.5 | 15.1 | 7 | 7.2 | 14.1 | 11.7 | 8.1 | 12.7 | 9.7 |
| CNC(=O)c1nn(C)c2c1C(C)(C)Cc1cnc(Nc3ccc(N4CCN(C)CC4)cc3)nc1-2 [Milciclib] | 6.8 | 5.4 | 9.4 | 6.4 | 7.4 | 6.2 | 10.1 | 10.7 | 8.8 | 6.5 | 8.1 | 9.1 |
| CCCCCCCCCCCCCCCCOP(=O)([O-])OCC[N+](C)(C)C [Miltefosine] | 12.8 | 3.4 | 9.1 | 3.5 | 5.9 | 5 | 5.8 | 7.3 | 5.5 | 4.7 | 4.1 | 11.5 |
| CO[C@@]12[C@H](COC(N)=O)C3=C(C(=O)C(C)=C(N)C3=O)N1C[C@@H]1N[C@@H]12 [Mitomycin C] | 4.7 | 0 | 0 | 0 | 0 | 0 | 0 | 0 | 0 | 0 | 0.9 | 0 |
| Clc1ccc(C(c2ccccc2Cl)C(Cl)Cl)cc1 (configuration not stated) [Mitotane] | 0 | 0 | 0 | 0.3 | 0 | 0 | 0 | 0 | 0 | 0.1 | 0.5 | 0 |
| O=C1c2c(O)ccc(O)c2C(=O)c2c(NCCNCCO)ccc(NCCNCCO)c21 [Mitoxantrone] | 13 | 4 | 6.1 | 4.2 | 12.8 | 9.2 | 3.2 | 6.5 | 12.5 | 3.9 | 5.9 | 6.2 |
| CCS(=O)(=O)Nc1ccc(Oc2ccc(F)cc2F)c(-c2cn(C)c(=O)c3[nH]ccc23)c1 [Mivebresib] | 25.3 | 9.4 | 20.2 | 18.3 | 25.6 | 24.7 | 22.6 | 22.8 | 30.7 | 6.4 | 22.1 | 18.4 |
| Nc1ccccc1NC(=O)c1ccc(CNc2nccc(-c3cccnc3)n2)cc1 [Mocetinostat] | 7.1 | 1.1 | 13.7 | 6.8 | 15.7 | 13 | 7 | 7.8 | 17.8 | 8.1 | 7.5 | 7.3 |
| CCNC(=O)C[C@@H]1N=C(c2ccc(Cl)cc2)c2cc(OC)ccc2-n2c(C)nnc21 [Molibresib] | 8.4 | 2.3 | 7.8 | 4.3 | 10 | 5.7 | 9.3 | 9.3 | 9.8 | 3.3 | 8.4 | 4.1 |
| N#CCNC(=O)c1ccc(-c2ccnc(Nc3ccc(N4CCOCC4)cc3)n2)cc1 [Momelotinib] | 0.9 | 1 | 3.3 | 0 | 5.8 | 4.8 | 1 | 2.4 | 6.8 | 2.7 | 2.6 | 6.9 |
| CC1(C)CNc2cc(NC(=O)c3cccnc3NCc3ccncc3)ccc21 [Motesanib] | 0 | 0 | 0 | 0 | 0 | 0 | 2.1 | 3.5 | 0 | 1.1 | 0.3 | 0 |
| CCCN(CCC)C(=O)C1=Cc2ccc(-c3ccc(C(=O)N4CCCC4)cc3)cc2N=C(N)C1 [Motolimod] | 0 | 0 | 0.5 | 0.9 | 0 | 0.8 | 0.3 | 0 | 0 | 2.3 | 1.9 | 1.8 |
| FC(F)(F)c1ccc(/C=C/c2nc(COc3ccc(CCCCn4ccnn4)cc3)co2)cc1 [Mubritinib] | 5.4 | 0 | 0.9 | 2.2 | 0 | 16.7 | 0.6 | 0.5 | 0 | 0.8 | 5.9 | 0.3 |
| Cc1cc(OCc2nnc(SC3CCCC3)n2-c2cccnc2)ccc1-c1ccc(S(C)(=O)=O)cc1 [NMS-873] | 8.6 | 4.4 | 8.9 | 7.9 | 8.1 | 19.9 | 6.8 | 6.9 | 9.3 | 8.7 | 12.4 | 6.7 |
